Experimental data taken from the Biogen ADME set (Fang et al. 2023).
In brackets after ≈: the same amount, converted by molar mass.

Details: for aqueous solubility: pH 6.8

| SMILES | MDR1-MDCK efflux ratio | intrinsic clearance, human liver microsomes [mL/min/kg] | intrinsic clearance, rat liver microsomes [mL/min/kg] | aqueous solubility [µg/mL] | fraction unbound, human plasma | fraction unbound, rat plasma |
| --- | --- | --- | --- | --- | --- | --- |
| CN1CCN(S(=O)(=O)c2ccc(C(F)(F)F)nc2)C(C)(C)C1 | 0.642 | 42.2 | 661 |  |  |  |
| Cc1cc(F)ccc1S(=O)(=O)N1CCCc2cnc(N3CCOCC3)nc21 | 0.723 |  |  | 0.31 (≈ 0.79 µM) |  |  |
| CS(=O)(=O)N1CCc2cc(C(=O)NCCOc3ccc4ccccc4c3)ccc21 | 1.68 |  |  | 0.44 (≈ 1.07 µM) |  |  |
| Cn1c(=O)n(Cc2cccc(OC(F)F)c2)c2cnccc21 | 1.34 | 10.4 | 209 | 49.1 (≈ 161 µM) |  |  |
| O=C(NCC#CCN1CCc2ccccc2C1)NCc1ccc(F)cc1 | 4 | 79.7 | 545 | 33.5 (≈ 95.2 µM) |  |  |
| COc1cc(OCc2ccccn2)ccc1/C=C/c1cc(/C=C/c2ccc3cc[nH]c3c2)[nH]n1 |  |  |  | 0.61 (≈ 1.36 µM) |  |  |
| CN1C(=O)N(CC(=O)Nc2ccccc2-c2ccccc2)C(=O)C1(C)C | 12.9 | 21.4 | 280 | 18.7 (≈ 53.2 µM) |  |  |
| O=c1oc2cccnc2n1Cc1ccccn1 | 2.49 | ≤ 4.74 | ≤ 10.7 |  |  |  |
| NC1CCCC(C(=O)Nc2cccc(N3CCNC3=O)c2)C1 (stereo not drawn) | 1.33 | ≤ 4.74 |  |  | 0.58 |  |
| N#Cc1c(O)c(Cl)c(Cl)c(C#N)c1Cl |  |  |  | 31.3 (≈ 126 µM) |  |  |
| O=C(c1ccccc1-n1cccn1)N1CCN(Cc2cccnc2)CC1 | 19.3 | 56 | 605 | 54.4 (≈ 157 µM) |  |  |
| Fc1cc(Br)ccc1CNCc1ccccn1 | 12 | 26.5 | 445 |  |  |  |
| C[C@@H](/C=C\C(F)(F)F)Oc1cc(-c2cc(-c3cc(CN(C)C)cs3)cnc2N)ccc1C(N)=O | 32.7 | 20.5 | 157 | 21.2 (≈ 43.2 µM) |  |  |
| N#Cc1cccnc1NCCc1ccc(F)cc1 | 0.519 | 179 | 1150 | 2.69 (≈ 11.1 µM) |  |  |
| O=c1c2c(nc3ccccn13)CCN(S(=O)(=O)C1CCCCC1)C2 | 1.18 | 19.9 | 1100 | 33.2 (≈ 95.7 µM) |  |  |
| COCCc1n[nH]c(-c2ccc(N3CCN(C)CC3)cc2)n1 | 7.53 | ≤ 4.74 | 50 |  |  |  |
| CC1(COc2ccc3c(c2)ncn3-c2ccc3cccc(OS(=O)(=O)C(F)(F)F)c3n2)COC1 |  |  |  | 0.4 (≈ 0.811 µM) |  |  |
| Cc1ccc(NC(=O)CN2[C@H](Cc3ccccc3)C[C@]3(C)NC(=O)CCC[C@H]23)cc1F | 12.4 | 499 | 3320 |  | 0.00729 | 0.023 |
| CN1CCC(NC(=O)COc2ccc(C#N)cc2)CC1 | 2.44 | ≤ 4.74 | ≤ 10.7 | 35.2 (≈ 129 µM) |  |  |
| Nc1ccc(CC(=O)Nc2ccccc2F)cc1 | 0.66 | ≤ 4.74 | ≤ 10.7 | 54 (≈ 221 µM) |  |  |

| SMILES | MDR1-MDCK efflux ratio | intrinsic clearance, human liver microsomes [mL/min/kg] | intrinsic clearance, rat liver microsomes [mL/min/kg] | aqueous solubility [µg/mL] | fraction unbound, human plasma | fraction unbound, rat plasma |
| --- | --- | --- | --- | --- | --- | --- |
| COc1cc2c(cc1OC)CN(C(=O)C1CCCN(C(=O)OC(C)(C)C)C1)CC2 (stereo not drawn) | 1.79 | 106 | 643 | 61.9 (≈ 153 µM) |  |  |
| CC(=O)N1CCC(Nc2ncnc3cc(-c4ccc(Br)cc4)sc23)CC1 | 5.91 | 6.41 | 43.2 | 10.2 (≈ 23.6 µM) |  |  |
| Cc1ccc(S(=O)(=O)N2CCOc3ccncc32)cc1 | 0.71 | 107 | 2090 |  |  |  |
| N#Cc1cccnc1NCCc1cn2c(n1)CCCC2 | 1.33 | 11.5 | 2440 | 52.4 (≈ 196 µM) |  |  |
| c1cc2cc[nH]c2c(CC2CN(C3CCCC3)C2)n1 | 3.21 | ≤ 4.74 | 80.5 | 18.6 (≈ 72.7 µM) |  |  |
| O=C(Cc1cccc2ccccc12)NCc1nnc2n1-c1ccccc1CC2 | 45 | 239 | 1730 | 46.7 (≈ 127 µM) |  |  |
| CN(Cc1cnn(C)c1)c1ncnc2c1oc1ccccc12 | 0.969 | 19.7 | 505 | 42.5 (≈ 145 µM) |  |  |
| CN(C)C(C)(C)CNc1ncnc2ccccc12 | 2.86 | ≤ 4.74 | 293 | 39.1 (≈ 160 µM) |  |  |
| COc1cc(N2CCN(C)CC2)ccc1Nc1ncc2c(n1)N(C)c1ccccc1C(=O)N2 | 45 | 14.2 | 131 | 61.7 (≈ 138 µM) |  |  |
| CN(CC#N)C(=O)c1cccc(CN2CCCC2)c1 | 2.59 | ≤ 4.74 | 322 | 34.9 (≈ 136 µM) |  |  |
| Cc1nc2ncc3c(n2n1)CCCC3=O | 0.752 | ≤ 4.74 | ≤ 10.7 |  |  |  |
| CCN1CCCN(C(=O)Nc2ccc(COC3CCCC3)cc2)CC1 | 9.16 | 6.32 | 287 |  |  |  |
| c1cnc(NCCc2cccc3cccnc23)nc1 |  | 105 | 879 | 37 (≈ 148 µM) |  |  |
| COc1cccc(-n2c(S)nnc2COc2cccc3ccccc23)c1 | 1.07 |  |  | 0.26 (≈ 0.715 µM) |  |  |
| O=C(Nc1ccc2c3c(cccc13)CC2)c1ccnc(-n2cncn2)c1 | 0.25 | 124 | 164 | 10.7 (≈ 31.4 µM) |  |  |
| CC(C)N1CCC(O)(c2ccccc2F)CC1 | 0.537 | ≤ 4.74 | 362 | 41.5 (≈ 175 µM) |  |  |
| CCN(CC)C(=O)N1CCCN(C(=O)N(CC)CC)CC1 | 4.51 | 68.5 | 698 | 48.6 (≈ 163 µM) |  |  |
| O=C1CN(C(=O)c2ccc(Cl)cn2)CCN1CCc1ccccc1 | 1.1 | 7.25 | 499 |  |  |  |
| Cc1cnc(-n2cnnc2)c(-c2cccc(Cl)c2Cl)c1 | 2.25 | 6.9 | 165 | 18.6 (≈ 61 µM) |  |  |

Other lines, results leading:

| MDR1-MDCK efflux ratio | intrinsic clearance, human liver microsomes [mL/min/kg] | intrinsic clearance, rat liver microsomes [mL/min/kg] | aqueous solubility [µg/mL] | fraction unbound, human plasma | fraction unbound, rat plasma | SMILES |
| --- | --- | --- | --- | --- | --- | --- |
|  | 506 | 2640 | 59.8 (≈ 174 µM) |  |  | Cc1cccc(NC(=O)CN2C(=O)N(C)C3(CCCCC3)C2=O)c1C |
|  |  |  | 104 (≈ 506 µM) |  |  | NCC(=O)Nc1ccc2[nH]c(=O)[nH]c2c1 |
| 0.732 | ≤ 4.74 | 12.8 | 49.5 (≈ 172 µM) |  |  | C#CCN1CCC(c2nc(Cc3noc(C)n3)no2)CC1 |
| 1.34 | ≤ 4.74 | ≤ 10.7 | 45.5 (≈ 174 µM) |  |  | CCC(CC)NC(=O)c1cc(C)nc2onc(C)c12 |
| 0.761 | 10.4 | 324 | 69.7 (≈ 231 µM) |  |  | CN(CC(N)=O)Cc1cc2c(cc1Br)OCO2 |
|  |  |  | 0.4 (≈ 0.948 µM) |  |  | O=C(CNC(=O)c1ccc(Cl)cc1)Nc1nc(-c2ccc3ccccc3c2)cs1 |
| 3.33 | ≤ 4.74 | 25.7 | 34.6 (≈ 120 µM) |  |  | COc1cc(F)ccc1-c1ncccc1NC(=O)C(C)C |
| 2.51 | 13.3 | 88.3 |  |  |  | CCC[C@@H]1C[C@@H](C(=O)N[C@@H]([C@H]2O[C@H](SC)[C@H](O)[C@@H](O)[C@@H]2O)[C@@H](C)O)N(C)C1 |
| 0.527 | 73 | 983 | 41.7 (≈ 140 µM) |  |  | CC(C)c1cnc(COc2ccc(Br)nc2)o1 |
| 0.617 | 39.6 | 793 | 31.6 (≈ 152 µM) |  |  | Cc1cc(NC(=O)c2cccs2)no1 |
| 0.698 | 45.8 |  |  | 0.0601 |  | CC(C)(C)c1ccc(C(O)CN2CCC(O)(c3ccc4c(c3)OCO4)CC2)cc1 (stereo not drawn) |
| 0.51 | 22.6 | 278 |  |  |  | Cc1cccc(NC(=O)CSc2nncs2)c1 |
|  | 42.9 | 334 |  |  |  | Oc1cc(F)ccc1-c1nc(-c2ccncc2)no1 |
| 4.16 | 19.3 | 278 |  |  |  | CCn1ncc(CN(C)C(=O)c2ccc(-c3nc(C)cc(C)n3)cc2)c1C |
|  |  |  | 0.15 (≈ 0.442 µM) |  |  | CCCn1c(=O)c2c(nc3n2CCN3c2ccc(C)cc2)n(C)c1=O |
| 9.05 | 7.62 | 30.3 |  |  |  | CC(C)CCN1CCc2nc3cc(C4CC4)nn3c(O)c2C1 |
|  | 11.6 | 163 |  |  |  | Cc1nc(C)n(-c2ccccc2NC(=O)c2cc(C#N)cn2C)n1 |
| 11.7 | 7.8 | 72.1 |  |  |  | CC(C)(O)CCn1cc2cc(NC(=O)c3cccc(C(F)F)n3)c(OCC3COC3)cc2n1 |
| 0.769 | 11.4 | 106 | 3.86 (≈ 11.1 µM) |  |  | Cc1cc(C)n(-c2ccc(CNC(=O)c3ccc4c(c3)CCO4)cn2)n1 |
